Data as given in US10995064B2, “Sulfamoyl-arylamides and the use thereof as medicaments for the treatment of hepatitis B” (priority 2012, dated 2021).

How the values were obtained:
HBV [1] = experiment: anti HBV activity, HepG2.117 inducible (Tet-off) cell line, intracellular HBV DNA by realtime PCR; type: cell-based; conditions: HepG2.117 cells, 3 days of treatment
HBV [2] = experiment: anti-HBV activity, HepG2.2.15 stable transfected cell line, HBV DNA from secreted virions by realtime PCR; type: cell-based; conditions: HepG2.2.15 cells, 6 days of treatment, secreted virion HBV DNA
HepG2 cells [3] = experiment: Cytotoxicity in HepG2 cells, 4 days, Resazurin assay; conditions: read-out: HepG2 4 days CC50, 4 days, Resazurin
HepG2 cells [4] = experiment: Cytotoxicity in HepG2 cells using CellTiter-Blue; type: cell-based; conditions: 6 days
[5] = Cytotoxicity in HepG2 cells, 4 days, Resazurin assay; conditions: human

Structure (SMILES)	EC50 (HBV [2]) [nM]	CC50 (HepG2 cells [3]) [nM]	further results
COC(=O)N1CCCC(NS(=O)(=O)c2cccc(C(=O)Nc3ccc(F)c(C)c3)c2)C1 (racemic) [Compound 159]			EC50 (HBV [1]; Hepatitis B virus, 72 h): 300 nM
COC(=O)N1CCCC(NS(=O)(=O)c2cccc(C(=O)Nc3ccc(F)c(C)c3)c2)C1 (racemic) [Compound 159a]	170		EC50 (HBV [1]): 860 nM
COC(=O)N1CCCC(NS(=O)(=O)c2cccc(C(=O)Nc3ccc(F)c(C)c3)c2)C1 (racemic) [Compound 159b]	160		EC50 (HBV [1]): 230 nM
Cc1cc(NC(=O)c2cccc(S(=O)(=O)NC3CC(=O)N(C)C3)c2)ccc1F (racemic) [Compound 179]			EC50 (HBV [2]; Hepatitis B virus, 144 h): 210 nM; EC50 (HBV [1]; Hepatitis B virus, 72 h): 440 nM
Cc1cc(NC(=O)c2cccc(S(=O)(=O)NC3CC(=O)N(C)C3)c2)ccc1F (racemic) [Compound 179a]	380	> 25000	EC50 (HBV [1]): 250 nM
Cc1cc(NC(=O)c2cccc(S(=O)(=O)NC3CC(=O)N(C)C3)c2)ccc1F (racemic) [Compound 179b]	1110	> 25000	EC50 (HBV [1]): 1840 nM
Cc1cc(NC(=O)c2cccc(S(=O)(=O)N[C@@H]3CCC[C@H](O)C3)c2)ccc1F (single isomer, unassigned) [Compound 134b, N-(4-fluoro-3-methyl-phenyl)-3-[[(1R,3S)-3-hydroxycyclohexyl]sulfamoyl]benzamide or N-(4-fluoro-3-methyl-phenyl)-3-[[(1S,3R)-3-hydroxycyclohexyl]sulfamoyl]benzamide]			EC50 (HBV [1]): 200 nM
Cc1cc(NC(=O)c2cccc(S(=O)(=O)N[C@H]3Cc4ccccc4[C@@H]3O)c2)ccc1F (single isomer, unassigned) [Compound 141a, N-(4-fluoro-3-methyl-phenyl)-3-[[(1S,2S)-1-hydroxyindan-2-yl]-sulfamoyl]benzamide or N-(4-fluoro-3-methyl-phenyl)-3-[[(1R,2R)-1-hydroxyindan-2-yl]sulfamoyl]benzamide]	700	> 25000	
Cc1cc(NC(=O)c2cccc(S(=O)(=O)N[C@H]3Cc4ccccc4[C@H]3O)c2)ccc1F (single isomer, unassigned) [Compound 141b, N-(4-fluoro-3-methyl-phenyl)-3-[[(1R,2S)-1-hydroxyindan-2-yl]sulfamoyl]benzamide or N-(4-fluoro-3-methyl-phenyl)-3-[[(1S,2R)-1-hydroxyindan-2-yl]sulfamoyl]benzamide]		> 25000	
Cc1cc(NC(=O)c2cccc(S(=O)(=O)N[C@@H]3CC[C@H](O)C3)c2)ccc1F (single isomer, unassigned) [Compound 145a, N-(4-fluoro-3-methyl-phenyl)-3-[[(1R,3S)-3-hydroxycyclopentyl]sulfamoyl]benzamide or N-(4-fluoro-3-methyl-phenyl)-3-[[(1S,3R)-3-hydroxycyclopentyl]sulfamoyl]benzamide]		> 25000	
Cc1cc(NC(=O)c2cccc(S(=O)(=O)N[C@H]3CC[C@H](O)C3)c2)ccc1F (single isomer, unassigned) [Compound 145c, N-(4-fluoro-3-methyl-phenyl)-3-[[(1S,3S)-3-hydroxycyclopentyl]-sulfamoyl]benzamide or N-(4-fluoro-3-methyl-phenyl)-3-[[(1R,3R)-3-hydroxycyclopentyl]sulfamoyl]benzamide]		> 25000	
Cc1cc(NC(=O)c2cccc(S(=O)(=O)N[C@H]3CC[C@H](O)C3)c2)ccc1F (single isomer, unassigned) [Compound 145d, N-(4-fluoro-3-methyl-phenyl)-3-[[(1S,3S)-3-hydroxycyclopentyl]-sulfamoyl]benzamide or N-(4-fluoro-3-methyl-phenyl)-3-[[(1R,3R)-3-hydroxycyclopentyl]sulfamoyl]benzamide]	400		
CC1(NS(=O)(=O)c2cccc(C(=O)Nc3ccc(F)cc3)c2)COC1 [Compound 4]		> 100000	EC50 (HBV [2]; Hepatitis B virus, 144 h): 960 nM; EC50 (HBV [1]; Hepatitis B virus, 72 h): 930 nM
O=C(Nc1ccccc1)c1cc(S(=O)(=O)N2CCCCC2)c(Cl)cc1Cl [Compound 20]		79600	
Cc1ccccc1NC(=O)c1cccc(S(=O)(=O)NC2CCCCC2)c1 [Compound 34]			CC50 (HepG2 cells [4]): > 25000 nM; EC50 (HBV [2]; Hepatitis B virus, 144 h): 4180 nM
O=C(Nc1ccc(F)cc1)c1cc(S(=O)(=O)N2CCCCC2)cs1 [Compound 61]		35700	
CC1(NS(=O)(=O)c2cccc(C(=O)Nc3ccc(F)cc3)c2)CCOCC1 [Compound 83]			CC50 at 4 days [5]: > 25000 nM
Cc1cc(NC(=O)c2cccc(S(=O)(=O)NC3CCCC(O)C3)c2)ccc1F (centres unmarked) [Compound 134]			EC50 (HBV [2]; Hepatitis B virus, 144 h): 180 nM
